Source: paper PMC8635440 (Science Advances, 2021)
Each block holds one molecule with its values, some of them ahead of it. Positions of bridges follow the written chain, without caps; N, C: chain ends. Non-standard residues stand in square brackets, D forms with d. Residues, ends and D or L forms follow the SMILES beside them.

Legend:
retromer holo-complex = retromer holo-complex (Homo sapiens, UniProt O75436+Q96QK1+Q9UBQ0); assay: Differential scanning fluorimetry of retromer; type: binding; details: DSF
Vps29 = Vps29 (Homo sapiens, UniProt Q9UBQ0); assay: Differential scanning fluorimetry of Vps29; type: binding; details: DSF, 20-fold molar excess
TBC1D5TBC into Retromer = TBC1D5TBC into Retromer (Homo sapiens, UniProt O75436+Q96QK1+Q9UBQ0); assay: ITC of TBC1D5TBC into retromer in presence of cyclic peptide; type: binding; details: native 370 nM
SNX27PDZ into Retromer = SNX27PDZ into Retromer (Homo sapiens, UniProt O75436+Q96QK1+Q9UBQ0); assay: ITC of SNX27PDZ into retromer in presence of cyclic peptide; type: binding, mouse SNX27; details: 1.3 mM SNX27PDZ into 30 μM retromer + 150 μM peptide; native (DMSO) 13.0 ± 0.5
[1] = system: TBC1D5 localization in HeLa cells; assay: TBC1D5 endosomal localization after SLO delivery of peptide; type: cell-based, human; details: 2 hours recovery, colocalization with SNX1
[2] = molecular target: GST-TBC1D5TBC binding to retromer (Homo sapiens, UniProt O75436+Q96QK1+Q9UBQ0); assay: GST pull-down assay; details: GST pulldown, purified proteins
Solubility observations = type: physicochemical; details: ITC buffer
[3] = molecular target: Vps26A9-298_Vps351-390 (Δ C-term. tail complex) (Homo sapiens, UniProt O75436+Q96QK1); assay: ITC binding to Vps26A ΔC-term. tail subcomplex; details: 25°C, Vps26A C-terminal tail removed
Vps26BΔC-Vps35_1–390 = Vps26BΔC-Vps35_1–390 (UniProt Q8C0E2+Q96QK1); assay: ITC binding to Vps26B ΔC-term. tail subcomplex; design: species or system mouse Vps26B, human Vps35
zfRetromer = zfRetromer (Danio rerio, UniProt A4QP42+Q6TNP8); assay: ITC binding to zebrafish retromer
ctRetromer = molecular target: T1, ctRetromer (Thermochaetoides thermophila, UniProt G0S0E6+G0S709); assay: ITC binding to C. thermophilum retromer; design: species or system Chaetomium thermophilum; details: 25°C
T1 sequence (G0S709 1-869): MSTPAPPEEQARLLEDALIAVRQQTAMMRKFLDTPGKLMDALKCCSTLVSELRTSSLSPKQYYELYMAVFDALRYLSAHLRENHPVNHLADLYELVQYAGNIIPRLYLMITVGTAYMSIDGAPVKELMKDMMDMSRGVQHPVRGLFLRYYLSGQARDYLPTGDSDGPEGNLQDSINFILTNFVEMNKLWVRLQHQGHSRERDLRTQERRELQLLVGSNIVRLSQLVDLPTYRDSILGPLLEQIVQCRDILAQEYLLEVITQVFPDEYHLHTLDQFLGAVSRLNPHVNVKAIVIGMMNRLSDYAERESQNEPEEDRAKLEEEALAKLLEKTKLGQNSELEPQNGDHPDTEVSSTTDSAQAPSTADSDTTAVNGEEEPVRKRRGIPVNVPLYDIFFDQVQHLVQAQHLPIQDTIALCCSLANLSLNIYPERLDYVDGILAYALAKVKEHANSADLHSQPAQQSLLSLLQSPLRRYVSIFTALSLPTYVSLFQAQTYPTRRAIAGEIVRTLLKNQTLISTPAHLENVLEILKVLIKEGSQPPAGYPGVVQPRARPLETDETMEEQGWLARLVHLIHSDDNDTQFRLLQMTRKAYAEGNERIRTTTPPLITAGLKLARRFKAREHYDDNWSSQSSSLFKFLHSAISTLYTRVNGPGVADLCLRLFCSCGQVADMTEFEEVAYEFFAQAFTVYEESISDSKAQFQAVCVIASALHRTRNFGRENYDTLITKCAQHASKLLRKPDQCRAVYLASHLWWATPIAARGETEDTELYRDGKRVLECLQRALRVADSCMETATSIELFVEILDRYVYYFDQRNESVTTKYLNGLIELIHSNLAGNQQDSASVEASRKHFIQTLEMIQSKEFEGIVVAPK
T1 sequence (G0S0E6 1-316): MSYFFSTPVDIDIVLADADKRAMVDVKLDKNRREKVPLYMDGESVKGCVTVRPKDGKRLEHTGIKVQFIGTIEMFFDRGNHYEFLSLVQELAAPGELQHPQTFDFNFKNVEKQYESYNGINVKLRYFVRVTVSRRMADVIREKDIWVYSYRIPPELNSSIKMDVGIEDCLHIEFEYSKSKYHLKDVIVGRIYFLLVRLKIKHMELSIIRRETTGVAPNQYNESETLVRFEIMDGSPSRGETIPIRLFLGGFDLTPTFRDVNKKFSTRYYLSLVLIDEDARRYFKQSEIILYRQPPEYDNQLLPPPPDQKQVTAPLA

[4] = molecular target: Vps26A-Vps35_1–390 subcomplex (Homo sapiens, UniProt O75436+Q96QK1); assay: Differential scanning fluorimetry of Vps26A-Vps35 1-390; type: binding; details: DSF
Vps26A = Vps26A (Homo sapiens, UniProt O75436); assay: Differential scanning fluorimetry of Vps26A; type: binding; details: DSF, control experiment
[5] = molecular target: retromer and its ligands in HeLa cell lysates (Homo sapiens, UniProt O75436+Q96QK1+Q9UBQ0); assay: Biotinylated cyclic peptide pull-down from HeLa cell lysates; type: binding; details: streptavidin agarose, Western blotting
[6] = molecular target: Rab7a with TBC1D5TBC and retromer (Homo sapiens, UniProt O75436+Q96QK1+Q9UBQ0); assay: GTPase activity assay; type: biochemical; details: 10 μM Rab7a, 3 μM TBC1D5TBC, 6 μM retromer, 60 μM peptide
[7] = molecular target: retromer binding to SNX3–CI-MPR cargo-PtdIns3P liposomes (Homo sapiens, UniProt O75436+Q96QK1+Q9UBQ0); assay: Liposome binding assay; details: Folch I liposomes, 7 μM retromer-SNX3
[8] = molecular target: human retromer complex (Vps35-[change]-Vps29) (human) (UniProt Q96QK1); assay: ITC

Molecule: N=C(N)SCc1ccc(CSC(=N)N)s1 [R55]
impact on thermal stability (Tm) of retromer (retromer holo-complex; 3 µM Retromer, 60 μM compound or 30-fold molar excess of peptide): unable to detect significant improvement
impact on Retromer stability (retromer holo-complex; 1 mM (>300-fold molar excess)): little impact

Molecule: CC[C@H](C)[C@@H]1NC(=O)[C@H]([C@@H](C)CC)NC(=O)[C@@H](Cc2ccc(O)cc2)NC(=O)CSC[C@@H](C(N)=O)NC(=O)[C@H](CCCNC(=N)N)NC(=O)[C@H](CCCCN)NC(=O)[C@H](CC(C)C)NC(=O)[C@H](CO)NC(=O)[C@H](CO)NC(=O)[C@H](CC(C)C)NC(=O)[C@H](Cc2ccccc2)NC(=O)[C@H](C(C)C)NC(=O)CNC(=O)[C@H](CC(C)C)NC(=O)[C@@H]2CCCN2C(=O)[C@H]([C@@H](C)O)NC(=O)[C@H](CC(=O)O)NC1=O [RT-D1] ({CH2CO}-[dY]IIDTPLGVFLSSLKRC-NH2; thioether N-17)
effect on melting temperature (Tm) of Vps29 (Vps29): increased

Molecule: CC(C)C[C@@H]1NC(=O)CNC(=O)[C@H](CC(C)C)NC(=O)[C@@H]2CCCN2C(=O)[C@H](CC(=O)O)NC(=O)[C@H](Cc2ccc(O)cc2)NC(=O)CNC(=O)[C@@H](Cc2ccc(O)cc2)NC(=O)CSC[C@@H](C(N)=O)NC(=O)[C@H](C)NC(=O)[C@H](Cc2ccccc2)NC(=O)[C@H](Cc2ccc(O)cc2)NC(=O)[C@H](CCCCN)NC1=O [RT-D3] ({CH2CO}-[dY]GYDPLGLKYFAC-NH2; thioether N-13)
effect on melting temperature (Tm) of Vps29 (Vps29): increased
Kd (TBC1D5TBC into Retromer): undetectable
Kd (SNX27PDZ into Retromer): no impact
effect on TBC1D5 localization to endosomal structures [1]: significant dispersal
effect on GST-TBC1D5TBC interaction with retromer [2]: inhibited

Molecule: CC(C)C[C@@H]1NC(=O)[C@@H]2CCCN2C(=O)[C@H](CC(=O)O)NC(=O)[C@H](Cc2c[nH]c3ccccc23)NC(=O)CNC(=O)[C@@H](Cc2ccc(O)cc2)NC(=O)CSC[C@@H](C(N)=O)NC(=O)[C@H](C(C)C)NC(=O)[C@H](Cc2ccccc2)NC(=O)[C@H](Cc2ccc(O)cc2)NC(=O)[C@H](CC(N)=O)NC(=O)[C@H](C(C)C)NC(=O)[C@H](Cc2ccc(O)cc2)NC1=O [RT-D4] ({CH2CO}-[dY]GWDPLYVNYFVC-NH2; thioether N-13)
solubility for ITC experiments (Solubility observations): not sufficiently soluble for ITC experiments

Molecule: CC(C)C[C@@H]1NC(=O)[C@H](Cc2ccc(O)cc2)NC(=O)CSC[C@@H](C(N)=O)NC(=O)[C@H](CC(N)=O)NC(=O)[C@H](C(C)C)NC(=O)[C@H](Cc2ccc(O)cc2)NC(=O)[C@H](Cc2ccccc2)NC(=O)[C@H](CC(C)C)NC(=O)[C@H](CCCNC(=N)N)NC(=O)[C@H](C(C)C)NC(=O)[C@H](Cc2ccc(O)cc2)NC(=O)[C@H](CC(C)C)NC(=O)[C@@H]2CCCN2C(=O)[C@H](CC(=O)O)NC(=O)[C@H](Cc2ccccc2)NC(=O)[C@H](CCC(=O)O)NC1=O [RT-L3] ({CH2CO}-YLEFDPLYVRLFYVNC-NH2; thioether N-16)
solubility for ITC experiments (Solubility observations): not sufficiently soluble for ITC experiments

Molecule: CC[C@H](C)[C@@H]1NC(=O)[C@H](Cc2c[nH]c3ccccc23)NC(=O)[C@H](Cc2ccc(O)cc2)NC(=O)CSC[C@@H](C(N)=O)NC(=O)[C@H]([C@@H](C)O)NC(=O)[C@H](CO)NC(=O)[C@H](C(C)C)NC(=O)[C@H](Cc2ccc(O)cc2)NC(=O)[C@H](CCCNC(=N)N)NC(=O)[C@H](Cc2ccc(O)cc2)NC(=O)[C@H]([C@@H](C)O)NC(=O)[C@H]([C@@H](C)O)NC(=O)[C@H](Cc2c[nH]c3ccccc23)NC(=O)[C@H](CO)NC(=O)[C@H](CC(N)=O)NC(=O)[C@H](CO)NC1=O [RT-L4] ({CH2CO}-YWISNSWTTYRYVSTC-NH2; thioether N-16)
Kd [3]: ~40 nM
Kd (Vps26BΔC-Vps35_1–390): ~40 nM
Kd (zfRetromer): 88 nM
Kd (ctRetromer): 5000 nM
effect on melting temperature (Tm) of Vps29 (Vps29): did not affect
increase in Tm for the Vps26A-Vps35_1–390 subcomplex [4]: 8 °C
effect on thermal stability of Vps26A alone (Vps26A): did not affect
retromer ligands recovered with peptide-bound retromer [5]: able to interact with TBC1D5, VARP, Fam21, SNX27, and the SNX3–DMT1-II complex
GAP-stimulated GTP hydrolysis of Rab7a [6]: slight improvement
retromer binding to SNX3–CI-MPR cargo-PtdIns3P liposomes [7]: subtle reduction
effect on TBC1D5 localization to endosomal structures [1]: no discernible effect

The remaining lines, values ahead:

effect on melting temperature (Tm) of Vps29 (Vps29): increased
Molecule: CC[C@H](C)[C@@H]1NC(=O)[C@H](CCCNC(=N)N)NC(=O)[C@@H]2CCCN2C(=O)[C@H](Cc2ccccc2)NC(=O)[C@H]([C@@H](C)O)NC(=O)CNC(=O)[C@H](CC(C)C)NC(=O)[C@@H]2CCCN2C(=O)[C@H]([C@@H](C)O)NC(=O)[C@H](Cc2c[nH]c3ccccc23)NC(=O)[C@H](Cc2ccc(O)cc2)NC(=O)[C@H]([C@@H](C)CC)NC(=O)[C@H]([C@@H](C)O)NC(=O)[C@H]([C@@H](C)O)NC(=O)[C@@H](Cc2ccc(O)cc2)NC(=O)CSC[C@@H](C(N)=O)NC(=O)[C@H](CCCNC(=N)N)NC1=O [RT-D2] ({CH2CO}-[dY]TTIYWTPLGTFPRIRC-NH2; thioether N-17)

effect on melting temperature (Tm) of Vps29 (Vps29): increased
Molecule: CC[C@H](C)[C@@H]1NC(=O)[C@H](Cc2ccc(O)cc2)NC(=O)CSC[C@@H](C(N)=O)NC(=O)CNC(=O)[C@H](Cc2c[nH]cn2)NC(=O)[C@H](CCCNC(=N)N)NC(=O)[C@H](CC(N)=O)NC(=O)[C@@H]2CCCN2C(=O)[C@H](Cc2ccccc2)NC(=O)[C@H]([C@@H](C)O)NC(=O)CNC(=O)[C@H](CC(C)C)NC(=O)[C@@H]2CCCN2C(=O)[C@H]([C@@H](C)O)NC(=O)[C@H](CCCCN)NC1=O [RT-L1] ({CH2CO}-YIKTPLGTFPNRHGC-NH2; thioether N-15)

effect on melting temperature (Tm) of Vps29 (Vps29): increased
Molecule: CC[C@H](C)[C@@H]1NC(=O)[C@H]([C@@H](C)O)NC(=O)[C@@H]2CCCN2C(=O)[C@H](CC(C)C)NC(=O)[C@H](Cc2ccc(O)cc2)NC(=O)CSC[C@@H](C(N)=O)NC(=O)[C@H](CC(C)C)NC(=O)[C@@H]2CCCN2C(=O)[C@H](Cc2c[nH]cn2)NC(=O)[C@H](Cc2c[nH]c3ccccc23)NC(=O)[C@H](CC(C)C)NC(=O)[C@H](Cc2c[nH]cn2)NC(=O)CNC(=O)[C@H](C(C)C)NC(=O)CNC(=O)[C@H]([C@@H](C)O)NC1=O [RT-L2] ({CH2CO}-YLPTITGVGHLWHPLC-NH2; thioether N-16)

Kd [8]: 370 nM
Molecule: TBC domain of human TBC1D5 (from UniProt Q92609 1-795) (domain or fragment)
